Our source for the T/C values is PubChem BioAssay AID256 (DTP/NCI, 2004).

The subject of this assay is CD2F1 mice, L1210 leukemia ip, survival T/C. As to the kind of experiment: NCI In Vivo Anticancer Drug Screen. Data for tumor model L1210 Leukemia (intraperitoneal) in CD2F1 (CDF1) mice. The conditions noted are these: higher = longer survival. The method in brief:
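Implant tumor; dose compound or vehicle; measure endpoint in both groups; report treated divided by control.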

The mark [1] stands for this setting: endpoint: mean survival time, dose: 25.0 mg/kg/injection, schedule: Q01DX009 (ip), vehicle: water.
[2] abbreviates: endpoint: mean survival time, dose: 50.0 mg/kg/injection, schedule: Q01DX009 (ip), vehicle: water.
Setting [3] is: endpoint: mean survival time, dose: 100.0 mg/kg/injection, schedule: Q01DX009 (ip), vehicle: water.

“And” between values parts separate entries of the source, which are not always exact repeats. Identical values can stand only once. Inconclusive results and toxic doses are left out.

As for `O=c1[nH]c(=O)n(C2OC(COP(=O)(O)O)C(O)C2O)nc1SCc1ccccc1` (centres undefined), the T/C by setting is: (endpoint: median survival time, dose: 5.0 mg/kg/injection, schedule: Q01DX005 (ip), vehicle: distilled water + Tween-80) 109 % of control; (endpoint: median survival time, dose: 10.0 mg/kg/injection, schedule: Q01DX005 (ip), vehicle: distilled water + Tween-80) 98 % of control; (endpoint: median survival time, dose: 20.0 mg/kg/injection, schedule: Q01DX005 (ip), vehicle: distilled water + Tween-80) 96 % of control; (endpoint: median survival time, dose: 40.0 mg/kg/injection, schedule: Q01DX005 (ip), vehicle: distilled water + Tween-80) 105 % of control; (endpoint: median survival time, dose: 80.0 mg/kg/injection, schedule: Q01DX005 (ip), vehicle: distilled water + Tween-80) 117 % of control.

Turning to `OCCNCCO`, the T/C is, setting by setting: (endpoint: mean survival time, dose: 100.0 mg/kg/injection, schedule: Q01DX009 (ip), vehicle: saline with Tween-80) 93 % of control; (endpoint: mean survival time, dose: 100.0 mg/kg/injection, schedule: Q04DX003 (ip), vehicle: saline with Tween-80) 97 % of control; (endpoint: mean survival time, dose: 200.0 mg/kg/injection, schedule: Q01DX009 (ip), vehicle: saline with Tween-80) 93 % of control; (endpoint: mean survival time, dose: 200.0 mg/kg/injection, schedule: Q04DX003 (ip), vehicle: saline with Tween-80) 103 % of control; (endpoint: mean survival time, dose: 400.0 mg/kg/injection, schedule: Q01DX009 (ip), vehicle: saline with Tween-80) 96 % of control; (endpoint: mean survival time, dose: 400.0 mg/kg/injection, schedule: Q04DX003 (ip), vehicle: saline with Tween-80) 107 % of control.

For `COc1ccc([N+]2=Cc3cc(OC)c(OC)cc3CC2)cc1OC`, the T/C (endpoint: mean survival time, dose: 12.5 mg/kg/injection, schedule: Q01DX009 (ip), vehicle: water) was 89 % of control; the T/C under setting [1] is 94 % of control; the T/C under setting [2] was 97 % of control; the T/C under setting [3] was 91 % of control.

With `[Cl][Pt+2][Cl].[NH-]CCO.[NH-]CCO`, the T/C is 102 % of control (endpoint: mean survival time, dose: 12.5 mg/kg/injection, schedule: Q04DX003 (ip), vehicle: saline) and 118 % of control (endpoint: mean survival time, dose: 50.0 mg/kg/injection, schedule: Q04DX003 (ip), vehicle: saline).

As for `Cc1cc2nc(N)n(C3OC(CO)C(O)C3O)c2cc1C` (centres undefined), the T/C (endpoint: mean survival time, dose: 75.0 mg/kg/injection, schedule: Q01DX001 (ip), vehicle: saline) is 108 % of control; the T/C (endpoint: mean survival time, dose: 150.0 mg/kg/injection, schedule: Q01DX001 (ip), vehicle: saline) is 105 % of control; the T/C (endpoint: mean survival time, dose: 300.0 mg/kg/injection, schedule: Q01DX001 (ip), vehicle: saline) is 103 % of control.

`O=NN(CCCl)C(=O)NCc1ccc[n+]([O-])c1`: the T/C reads like this: (endpoint: mean survival time, dose: 6.25 mg/kg/injection, schedule: Q01DX001 (ip), vehicle: water) 152 % of control and 167 % of control; (endpoint: mean survival time, dose: 12.5 mg/kg/injection, schedule: Q01DX001 (ip), vehicle: water) 274 % of control and 290 % of control; (endpoint: mean survival time, dose: 25.0 mg/kg/injection, schedule: Q01DX001 (ip), vehicle: water) 309 % of control and 324 % of control.

Take `O=C(O)c1c2ccccc2cc2ccccc12`: the T/C is, setting by setting: (endpoint: mean survival time, dose: 100.0 mg/kg/injection, schedule: Q04DX003 (ip), vehicle: Klucel (hydroxypropylcellulose) (HPC)) 101 % of control; (endpoint: mean survival time, dose: 200.0 mg/kg/injection, schedule: Q04DX003 (ip), vehicle: Klucel (hydroxypropylcellulose) (HPC)) 95 % of control; (endpoint: mean survival time, dose: 400.0 mg/kg/injection, schedule: Q04DX003 (ip), vehicle: Klucel (hydroxypropylcellulose) (HPC)) 90 % of control.

For `OCC1OC(n2cnc3cncnc32)C(O)C1O` (centres undefined), the T/C by setting is: (endpoint: mean survival time, dose: 0.78 mg/kg/injection, schedule: Q01DX009 (ip), vehicle: saline) 94 % of control and 102 % of control; (endpoint: mean survival time, dose: 1.56 mg/kg/injection, schedule: Q01DX009 (ip), vehicle: saline) 106 % of control and 112 % of control; (endpoint: mean survival time, dose: 3.12 mg/kg/injection, schedule: Q01DX009 (ip), vehicle: saline) 103 % of control and 106 % of control; (endpoint: mean survival time, dose: 6.25 mg/kg/injection, schedule: Q01DX009 (ip), vehicle: saline) 118 % of control and 89 % of control; (endpoint: mean survival time, dose: 12.5 mg/kg/injection, schedule: Q01DX009 (ip), vehicle: saline) 106 % of control; (endpoint: mean survival time, dose: 25.0 mg/kg/injection, schedule: Q01DX009 (ip), vehicle: saline) 119 % of control and 101 % of control.

With `C=C1CC23CC[C@H]4[C@@](C)(CCC[C@@]4(C)C(=O)O)[C@@H]2CC[C@]1(OC1OC(COC(C)=O)C(OC(C)=O)C(OC(C)=O)C1OC1OC(COC(C)=O)C(OC(C)=O)C(OC(C)=O)C1OC(C)=O)C3` (some centres undefined), the T/C by setting is: (endpoint: mean survival time, dose: 100.0 mg/kg/injection, schedule: Q04DX002 (ip), vehicle: saline with Tween-80) 93 % of control; (endpoint: mean survival time, dose: 200.0 mg/kg/injection, schedule: Q04DX002 (ip), vehicle: saline with Tween-80) 89 % of control; (endpoint: mean survival time, dose: 400.0 mg/kg/injection, schedule: Q04DX002 (ip), vehicle: saline with Tween-80) 96 % of control.

For `O=C(CCl)N1c2ccccc2Sc2ccccc21`, the T/C was 93 % of control under setting [1]; 91 % of control under setting [2]; 95 % of control under setting [3]; 95 % of control (endpoint: mean survival time, dose: 200.0 mg/kg/injection, schedule: Q01DX009 (ip), vehicle: water).
